Values quoted from earlier work, collected in patent publication EP4810529A1, “1,1-DICYANOETHYLENE-CONTAINING COMPOSITION, CURED PRODUCT, LAMINATE, AND METHOD FOR PRODUCING 1,1-DICYANOETHYLENE-CONTAINING COMPOSITION” (Kuraray Co., Ltd., priority 2023, dated 2025).

Conditions: logarithmic acid dissociation constant, room temperature, aqueous system, first stage

O=[N+]([O-])O [nitric acid]
pKa: -1.3
